Test results: ChEMBL document CHEMBL4837239, “Identification of Thieno[3,2-d]pyrimidine Derivatives as Dual Inhibitors of Focal Adhesion Kinase and FMS-like Tyrosine Kinase 3” (J Med Chem, 2021)
The source made the active and inactive calls. The calls are words filed in the database; no cut-off is given here.

How the values were obtained:
MDA-MB-231 [1] = test: Antiproliferative activity against human MDA-MB-231 cells assessed as growth inhibition measured after 72 hrs by CellTiter-Glo assay; assay type: functional; conditions: Homo sapiens, MDA-MB-231
[2] = target: Epithelial discoidin domain-containing receptor 1 (Homo sapiens, UniProt Q08345); test: Inhibition of DDR1 (unknown origin)
[3] = target: T1, Non-receptor tyrosine-protein kinase TYK2 (Homo sapiens, UniProt P29597); test: Inhibition of TYK2 (unknown origin)
[4] = target: Cyclin-dependent kinase 4 (Homo sapiens, UniProt P11802); test: Inhibition of CDK4 (unknown origin)
[5] = target: T2, Tyrosine-protein kinase Fyn (Homo sapiens, UniProt P06241); test: Inhibition of Fyn (unknown origin)
Target sequence in this assay (P06241 whole entry): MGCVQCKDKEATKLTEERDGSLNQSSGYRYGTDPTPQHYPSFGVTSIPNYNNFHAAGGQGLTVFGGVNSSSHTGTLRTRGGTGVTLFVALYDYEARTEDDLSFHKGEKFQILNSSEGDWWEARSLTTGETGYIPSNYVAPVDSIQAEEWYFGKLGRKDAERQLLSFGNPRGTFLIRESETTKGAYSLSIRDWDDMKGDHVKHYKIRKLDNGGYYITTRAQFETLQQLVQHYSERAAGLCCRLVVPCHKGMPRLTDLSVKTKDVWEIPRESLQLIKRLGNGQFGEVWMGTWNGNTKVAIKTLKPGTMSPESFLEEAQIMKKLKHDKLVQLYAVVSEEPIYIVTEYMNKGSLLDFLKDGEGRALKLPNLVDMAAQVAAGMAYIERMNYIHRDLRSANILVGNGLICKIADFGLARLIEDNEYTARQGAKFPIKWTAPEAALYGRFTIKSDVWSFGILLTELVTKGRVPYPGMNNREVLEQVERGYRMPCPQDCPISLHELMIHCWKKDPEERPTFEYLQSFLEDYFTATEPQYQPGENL

Homo sapiens = species on record: Homo sapiens; test: Inhibition of FLT3 D835Y mutant (unknown origin) at 0.1 uM
[6] = target: Tyrosine-protein kinase JAK3 (Homo sapiens) (UniProt P52333); test: Inhibition of JAK3 (unknown origin) at 0.1 uM
[7] = target: T1, Non-receptor tyrosine-protein kinase TYK2; test: Inhibition of TYK2 (unknown origin) at 0.1 uM
[8] = target: Proto-oncogene tyrosine-protein kinase receptor Ret (Homo sapiens, UniProt P07949); test: Inhibition of RET (unknown origin) at 0.1 uM
[9] = target: T2, Tyrosine-protein kinase Fyn; test: Inhibition of Fyn (unknown origin) at 0.1 uM
BaF3 [10] = test: Antiproliferative activity against mouse Ba/F3 cells assessed as growth inhibition measured after 72 hrs by CellTiter-Glo assay; assay type: functional; conditions: Mus musculus, BaF3
Focal adhesion kinase 1 [11] = target: T3, Focal adhesion kinase 1 (Homo sapiens, UniProt Q05397); test: Inhibition of FAK autophosphorylation at Y576 in human MDA-MB-231 cells at 5 uM incubated for 24 hrs by Western blot analysis; assay type: cell-based
Focal adhesion kinase 1 [12] = target: T3, Focal adhesion kinase 1; test: Inhibition of FAK autophosphorylation at Y925 in human MDA-MB-231 cells at 5 uM incubated for 24 hrs by Western blot analysis; assay type: cell-based
Focal adhesion kinase 1 [13] = target: T3, Focal adhesion kinase 1; test: Inhibition of FAK in human HCT-116 cells assessed as inhibition of Pyk2 phosphorylation at 0.5 to 5 uM incubated for 24 hrs by Western blot analysis; assay type: cell-based; conditions: dose 0.5-5 µM
HCT-116 [14] = test: Induction of apoptosis in human HCT-116 cells assessed as cleaved PARP at 0.1 to 10 uM incubated for 24 hrs by Western blot analysis; assay type: functional, cell-based; conditions: dose 0.1-10 µM
MDA-MB-231 [15] = test: Growth inhibition of anchorage-Independent human MDA-MB-231 cells assessed as decrease in number of colonies incubated for 72 hrs by MTT assay; assay type: functional, cell-based; conditions: dose 1-10 µM
HCT-116 [16] = test: Growth inhibition of anchorage-Independent human HCT-116 cells assessed as decrease in size incubated for 72 hrs by MTT assay; assay type: functional, cell-based; conditions: dose 1-10 µM
MDA-MB-231 [17] = test: In vivo antitumor activity against human MDA-MB-231 cells xenografted in Balb/c mouse assessed as reduction in tumor weight at 40 to 70 mg/kg, po once daily measured for 16 days; assay type: functional, organism-based; conditions: dose 40-70 mg/kg, time 16.0 day
MDA-MB-231 [18] = test: Antitumor activity against human MDA-MB-231 cells xenografted in Balb/c mouse assessed as decrease in ki67 at 40 to 70 mg/kg, po once daily measured for 16 days by Immunohistochemical analysis; assay type: functional, organism-based; conditions: dose 40-70 mg/kg, time 16.0 day
HCT-116 [19] = test: Antiinvasive activity in human HCT-116 cells assessed as suppression of invasion at 1 uM measured after 12 hrs by trans well experiment; assay type: functional
MDA-MB-231 [20] = test: Disruption of focal adhesion of human MDA-MB-231 cells assessed as decrease in vinculin measured after 3 hrs by Alexa Fluor 488-conjugated Ab based fluorescence analysis; assay type: functional, cell-based; conditions: dose 1-10 µM
MDA-MB-231 [21] = test: Antimetastatic activity against human MDA-MB-231 cells expressing firefly luciferase xenografted NSG orthotopic mouse model assessed as reduction in luminescence intensity at chest region at 70 mg/kg, po once daily measured for 2 weeks; assay type: functional, organism-based
MDA-MB-231 [22] = test: Antimetastatic activity against human MDA-MB-231 cells expressing firefly luciferase xenografted NSG orthotopic mouse model assessed as reduction in luminescence intensity at lung at 70 mg/kg, po once daily measured for 2 weeks; assay type: functional, organism-based
MDA-MB-231 [23] = test: Antimetastatic activity against human MDA-MB-231 cells expressing firefly luciferase xenografted NSG orthotopic mouse model assessed as reduction in luminescence intensity at liver at 70 mg/kg, po once daily measured for 2 weeks; assay type: functional, organism-based
[24] = tested on: T4, Receptor-type tyrosine-protein kinase FLT3 (Homo sapiens), P36888 [D835Y]; test: Inhibition of FLT3-D835Y mutant (unknown origin) expressed in mouse BaF3 cells assessed as decrease in STAT5 phosphorylation at 1 nM by Western blot analysis; assay type: cell-based
T4 sequence (whole entry): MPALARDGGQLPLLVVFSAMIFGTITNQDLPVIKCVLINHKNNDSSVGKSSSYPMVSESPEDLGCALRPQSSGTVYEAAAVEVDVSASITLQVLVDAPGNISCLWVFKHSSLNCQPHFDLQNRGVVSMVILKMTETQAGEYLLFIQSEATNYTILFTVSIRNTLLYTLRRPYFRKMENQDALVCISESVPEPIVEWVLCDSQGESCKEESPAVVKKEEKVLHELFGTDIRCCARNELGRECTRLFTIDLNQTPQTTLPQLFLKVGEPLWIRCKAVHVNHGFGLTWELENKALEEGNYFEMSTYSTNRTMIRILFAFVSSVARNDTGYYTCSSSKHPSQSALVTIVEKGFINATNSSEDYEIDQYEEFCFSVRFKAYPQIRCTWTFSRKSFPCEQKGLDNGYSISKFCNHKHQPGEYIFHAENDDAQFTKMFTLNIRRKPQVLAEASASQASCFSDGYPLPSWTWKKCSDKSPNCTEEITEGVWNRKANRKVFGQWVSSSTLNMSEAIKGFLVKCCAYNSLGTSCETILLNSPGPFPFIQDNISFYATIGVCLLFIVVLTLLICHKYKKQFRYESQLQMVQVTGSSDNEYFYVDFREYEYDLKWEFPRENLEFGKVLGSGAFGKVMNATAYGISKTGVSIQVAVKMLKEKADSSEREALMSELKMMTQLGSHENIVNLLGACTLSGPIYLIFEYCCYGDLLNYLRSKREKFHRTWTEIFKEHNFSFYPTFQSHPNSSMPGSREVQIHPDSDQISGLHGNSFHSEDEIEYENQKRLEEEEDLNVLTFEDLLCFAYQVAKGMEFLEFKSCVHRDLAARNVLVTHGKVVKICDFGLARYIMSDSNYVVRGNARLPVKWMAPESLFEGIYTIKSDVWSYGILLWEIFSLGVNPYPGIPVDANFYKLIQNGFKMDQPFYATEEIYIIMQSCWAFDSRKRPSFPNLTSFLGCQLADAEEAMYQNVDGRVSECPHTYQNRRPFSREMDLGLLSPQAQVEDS

BaF3 [25] = test: Inhibition of FLT3-ITD/[…] mutant (unknown origin) expressed in mouse Ba/F3 cells assessed as decrease in autophosphorylation at 10 nM by Western blot analysis; assay type: cell-based; conditions: Homo sapiens
[26] = tested on: T4, Receptor-type tyrosine-protein kinase FLT3 (Homo sapiens), P36888 [D835Y]; test: Inhibition of FLT3-D835Y mutant (unknown origin) expressed in mouse Ba/F3 cells assessed as decrease in STAT5 phosphorylation at 10 nM by Western blot analysis; assay type: cell-based; conditions: BaF3

T3 sequence (Q05397 2-1052 limits assumed): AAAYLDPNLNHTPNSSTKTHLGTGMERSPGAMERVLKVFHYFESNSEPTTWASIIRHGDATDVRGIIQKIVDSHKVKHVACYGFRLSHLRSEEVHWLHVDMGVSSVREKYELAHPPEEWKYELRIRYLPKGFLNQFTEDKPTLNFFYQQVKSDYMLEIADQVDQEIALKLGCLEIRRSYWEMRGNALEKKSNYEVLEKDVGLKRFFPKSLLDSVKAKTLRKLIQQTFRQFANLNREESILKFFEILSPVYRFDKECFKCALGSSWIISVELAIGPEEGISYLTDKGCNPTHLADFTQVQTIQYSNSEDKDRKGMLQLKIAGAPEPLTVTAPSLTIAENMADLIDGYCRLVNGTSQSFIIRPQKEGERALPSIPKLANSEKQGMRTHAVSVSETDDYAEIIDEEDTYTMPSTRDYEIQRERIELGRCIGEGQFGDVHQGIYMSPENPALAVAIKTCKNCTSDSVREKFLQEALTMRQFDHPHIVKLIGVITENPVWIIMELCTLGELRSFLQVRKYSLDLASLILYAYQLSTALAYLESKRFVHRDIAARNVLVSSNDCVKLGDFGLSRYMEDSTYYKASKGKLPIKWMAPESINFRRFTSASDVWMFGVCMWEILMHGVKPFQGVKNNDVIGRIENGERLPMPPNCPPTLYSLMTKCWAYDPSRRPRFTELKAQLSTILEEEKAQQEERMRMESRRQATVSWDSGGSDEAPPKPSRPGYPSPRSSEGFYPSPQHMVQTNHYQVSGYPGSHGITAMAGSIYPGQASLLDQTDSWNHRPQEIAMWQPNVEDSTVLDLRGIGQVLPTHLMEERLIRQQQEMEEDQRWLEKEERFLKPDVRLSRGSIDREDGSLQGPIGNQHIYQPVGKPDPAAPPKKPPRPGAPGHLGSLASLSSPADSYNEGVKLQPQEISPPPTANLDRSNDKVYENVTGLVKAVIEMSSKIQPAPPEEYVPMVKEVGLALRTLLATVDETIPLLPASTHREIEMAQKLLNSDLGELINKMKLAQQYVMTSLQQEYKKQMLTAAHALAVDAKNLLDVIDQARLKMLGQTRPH
T1 sequence (P29597 whole entry): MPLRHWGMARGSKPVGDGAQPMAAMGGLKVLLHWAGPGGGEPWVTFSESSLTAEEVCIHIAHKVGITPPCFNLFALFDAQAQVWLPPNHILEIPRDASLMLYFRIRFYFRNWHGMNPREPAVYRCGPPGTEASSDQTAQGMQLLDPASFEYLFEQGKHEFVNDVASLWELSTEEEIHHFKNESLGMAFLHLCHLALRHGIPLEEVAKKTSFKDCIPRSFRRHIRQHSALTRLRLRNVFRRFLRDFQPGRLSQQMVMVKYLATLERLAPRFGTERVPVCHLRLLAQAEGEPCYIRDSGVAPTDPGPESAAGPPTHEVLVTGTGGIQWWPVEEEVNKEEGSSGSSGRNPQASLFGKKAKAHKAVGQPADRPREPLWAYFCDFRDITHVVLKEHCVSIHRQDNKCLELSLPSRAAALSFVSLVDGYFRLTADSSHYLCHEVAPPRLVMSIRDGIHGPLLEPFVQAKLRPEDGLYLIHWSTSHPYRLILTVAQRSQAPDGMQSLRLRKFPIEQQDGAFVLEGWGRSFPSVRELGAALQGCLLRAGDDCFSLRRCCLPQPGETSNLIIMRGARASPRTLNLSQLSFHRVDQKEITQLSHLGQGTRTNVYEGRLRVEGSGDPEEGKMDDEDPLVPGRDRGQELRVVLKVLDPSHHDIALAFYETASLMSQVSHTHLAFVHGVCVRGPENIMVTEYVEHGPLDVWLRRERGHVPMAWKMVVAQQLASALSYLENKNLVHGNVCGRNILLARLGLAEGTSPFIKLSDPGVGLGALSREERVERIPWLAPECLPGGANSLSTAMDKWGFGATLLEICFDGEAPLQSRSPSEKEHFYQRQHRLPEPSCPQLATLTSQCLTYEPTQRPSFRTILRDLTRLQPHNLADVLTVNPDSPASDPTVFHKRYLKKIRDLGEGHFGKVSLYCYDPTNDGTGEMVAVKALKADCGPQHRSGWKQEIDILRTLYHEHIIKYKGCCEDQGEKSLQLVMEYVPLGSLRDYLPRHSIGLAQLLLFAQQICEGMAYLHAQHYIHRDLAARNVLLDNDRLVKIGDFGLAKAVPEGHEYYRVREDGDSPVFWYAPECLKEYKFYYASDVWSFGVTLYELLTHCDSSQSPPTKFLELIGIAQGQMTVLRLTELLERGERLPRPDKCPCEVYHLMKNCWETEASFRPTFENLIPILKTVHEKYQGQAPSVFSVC
Chain of Epithelial discoidin domain-containing receptor 1 (Q08345 whole entry, the tested form may be a part): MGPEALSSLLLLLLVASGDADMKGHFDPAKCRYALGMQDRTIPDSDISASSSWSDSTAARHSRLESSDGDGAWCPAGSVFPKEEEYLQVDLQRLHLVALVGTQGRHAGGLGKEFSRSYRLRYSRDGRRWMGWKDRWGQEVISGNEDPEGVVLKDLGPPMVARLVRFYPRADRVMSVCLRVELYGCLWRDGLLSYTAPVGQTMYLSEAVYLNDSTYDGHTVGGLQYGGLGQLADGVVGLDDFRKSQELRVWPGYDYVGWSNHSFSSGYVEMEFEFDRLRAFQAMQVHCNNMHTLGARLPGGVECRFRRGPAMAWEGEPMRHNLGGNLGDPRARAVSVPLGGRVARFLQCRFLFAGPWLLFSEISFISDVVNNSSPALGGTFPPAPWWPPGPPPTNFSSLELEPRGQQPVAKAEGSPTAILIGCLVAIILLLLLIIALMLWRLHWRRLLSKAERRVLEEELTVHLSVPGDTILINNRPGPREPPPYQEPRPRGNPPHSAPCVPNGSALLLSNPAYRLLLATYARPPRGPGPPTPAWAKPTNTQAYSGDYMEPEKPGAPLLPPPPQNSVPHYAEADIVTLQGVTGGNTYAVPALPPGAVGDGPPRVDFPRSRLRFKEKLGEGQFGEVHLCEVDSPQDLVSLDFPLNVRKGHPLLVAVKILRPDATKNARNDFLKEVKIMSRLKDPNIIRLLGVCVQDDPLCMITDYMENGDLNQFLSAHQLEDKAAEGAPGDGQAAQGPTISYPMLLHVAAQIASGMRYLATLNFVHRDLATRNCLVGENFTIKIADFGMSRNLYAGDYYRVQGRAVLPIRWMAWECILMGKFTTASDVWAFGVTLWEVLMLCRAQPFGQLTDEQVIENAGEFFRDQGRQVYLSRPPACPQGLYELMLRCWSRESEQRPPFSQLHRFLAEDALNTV
Chain of Tyrosine-protein kinase JAK3 (Homo sapiens) (P52333 whole entry): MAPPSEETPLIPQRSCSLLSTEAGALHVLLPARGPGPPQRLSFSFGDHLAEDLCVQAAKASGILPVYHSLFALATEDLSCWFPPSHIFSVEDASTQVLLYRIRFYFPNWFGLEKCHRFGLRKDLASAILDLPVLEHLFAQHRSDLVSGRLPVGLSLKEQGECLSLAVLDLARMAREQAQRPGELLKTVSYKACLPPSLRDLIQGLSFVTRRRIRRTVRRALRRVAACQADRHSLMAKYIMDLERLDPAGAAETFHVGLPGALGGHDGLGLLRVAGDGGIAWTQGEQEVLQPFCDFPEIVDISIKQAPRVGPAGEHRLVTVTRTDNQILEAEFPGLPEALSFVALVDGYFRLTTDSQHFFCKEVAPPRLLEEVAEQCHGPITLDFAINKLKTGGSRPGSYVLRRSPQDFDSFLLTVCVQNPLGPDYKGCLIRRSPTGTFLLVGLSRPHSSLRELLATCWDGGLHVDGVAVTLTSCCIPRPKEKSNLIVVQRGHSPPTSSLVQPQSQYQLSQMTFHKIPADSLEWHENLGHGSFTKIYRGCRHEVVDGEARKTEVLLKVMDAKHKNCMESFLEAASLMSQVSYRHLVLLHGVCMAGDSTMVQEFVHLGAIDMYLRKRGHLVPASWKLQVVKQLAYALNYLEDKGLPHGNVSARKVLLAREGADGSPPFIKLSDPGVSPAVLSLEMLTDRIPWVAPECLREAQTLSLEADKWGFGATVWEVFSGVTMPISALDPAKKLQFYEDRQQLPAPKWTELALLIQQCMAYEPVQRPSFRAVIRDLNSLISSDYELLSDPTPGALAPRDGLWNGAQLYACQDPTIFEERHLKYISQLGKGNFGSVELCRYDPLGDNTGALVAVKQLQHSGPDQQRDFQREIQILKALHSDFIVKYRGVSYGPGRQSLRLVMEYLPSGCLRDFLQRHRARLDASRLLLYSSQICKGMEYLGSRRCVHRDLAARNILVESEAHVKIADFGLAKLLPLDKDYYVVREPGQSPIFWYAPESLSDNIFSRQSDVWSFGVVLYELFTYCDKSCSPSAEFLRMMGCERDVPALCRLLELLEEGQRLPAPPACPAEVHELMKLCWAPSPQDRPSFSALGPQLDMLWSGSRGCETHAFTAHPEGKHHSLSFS

What does the source list for CCN1CCN(c2ccc(Nc3ncc4scc(-c5cccc(NS(C)(=O)=O)c5)c4n3)cc2)CC1?
GI50 (MDA-MB-231 [1]): 470 nM; IC50 [2]: 4.4 nM; IC50 [3]: 4.3 nM; IC50 [4]: 8.5 nM; IC50 [5]: 7.7 nM; inhibition (Homo sapiens): 98.4%; inhibition [6]: 96.7%; inhibition [7]: 95.9%; inhibition [8]: 95.3%; inhibition [9]: 92%; GI50 (BaF3 [10]): 428 nM; inhibition (Focal adhesion kinase 1 [11]): Active; inhibition (Focal adhesion kinase 1 [12]): Active; inhibition (Focal adhesion kinase 1 [13]): Active; Activity (HCT-116 [14]): Active; growth inhibition (GI) (MDA-MB-231 [15]): Dose-Dependent Effect; growth inhibition (GI) (HCT-116 [16]): Active; Activity (MDA-MB-231 [17]): Active; Activity (MDA-MB-231 [18]): Active; inhibition at 1 µM (HCT-116 [19]): 50%; Activity (MDA-MB-231 [20]): Active; Activity (MDA-MB-231 [21]): Active; Activity (MDA-MB-231 [22]): Active; Activity (MDA-MB-231 [23]): Active; inhibition [24]: Active; inhibition (BaF3 [25]): 100%; inhibition [26]: 100%
